# Laboratory results published in paper PMC5608352, “Formyl peptide derived lipopeptides disclose differences between the receptors in mouse and men and call the pepducin concept in question” (PLoS ONE, 2017).
# Entries after “also recorded” stand apart in the source; their conditions may differ. Residues, ends and D or L forms follow the SMILES beside them. *: point of attachment. Palmitoyl = CCCCCCCCCCCCCCCC(=O)*
# Key:
# Type in all cases: cell-based
# Fpr2 [1] = target: T1, Fpr2 (Mus musculus, UniProt O88536); assay: Inhibition of F1Pal16-induced superoxide release, WT mouse neutrophils; details: mF2Pal16 250 nM, 5 min pre-incubation, F1Pal16 500 nM, one of three experiments
# T1 construct: WT mouse neutrophils (5 x 10^4 cells) were pre-incubated without (solid line) or with mF2Pal16; endogenous in cells; host or cells: bone marrow neutrophils of C57BL/6 wild-type mice, TNF-alpha primed
# T1 sequence (O88536 1-351): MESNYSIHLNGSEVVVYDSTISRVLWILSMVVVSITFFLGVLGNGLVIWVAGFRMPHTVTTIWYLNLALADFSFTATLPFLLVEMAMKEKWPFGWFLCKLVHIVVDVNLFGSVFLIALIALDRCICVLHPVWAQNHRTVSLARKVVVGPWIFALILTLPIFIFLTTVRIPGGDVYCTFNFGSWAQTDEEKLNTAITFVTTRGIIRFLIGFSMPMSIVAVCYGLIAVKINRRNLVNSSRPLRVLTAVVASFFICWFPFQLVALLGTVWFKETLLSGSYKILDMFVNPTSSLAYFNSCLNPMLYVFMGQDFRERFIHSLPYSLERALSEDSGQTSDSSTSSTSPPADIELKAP
# Text: Mice (8–12 weeks of age) were killed by cervical dislocation, the femurs and tibias were removed and freed of soft tissue attachments, and the extreme distal tip of each extremity was cut off. KRG without Ca^2+ and Mg^2+ (KRG-) was forced through the bone by using a 1-mL syringe with a 27-gauge needle. After dispersing cell clumps and removing the debris, the bone marrow granulocytes were isolated according to an earlier described procedure with some modifications. Briefly, a cell suspension in 2 mL of KRG- was laid on top of a three-layer Percoll gradient (1.095, 1.085, and 1.070 g/mL). The density of each Percoll solution was verified using density marker beads. […] The cell number and population of bone marrow cells were determined by flow cytometry based on forward scatter (size) and side scatter (density) localization.
# (§1) NADPH-oxidase activity was determined using an isoluminol and HRP-enhanced chemiluminescence (CL) system that allow for the determination of superoxide production. The CL activity was measured in a six-channel Biolumat LB 9505 apparatus (Berthold Co., Wildbad, Germany), using disposable 4-mL polypropylene tubes with 1 mL reaction mixture. […] The light emission was recorded continuously over time and presented as superoxide production (in arbitrary light units, cpm x10^-6) as a function of time (min). […]
# Fpr2 [2] = target: T1, Fpr2; assay: Inhibition of F2Pal16-induced superoxide release, WT mouse neutrophils; details: Boc2 2 μM or peptidomimetic inhibitor 1 μM (five experiments), or mF2Pal16 500 nM against F2Pal16 500 nM (three experiments); 5 min pre-incubation
# Text: Mice (8–12 weeks of age) were killed by cervical dislocation, the femurs and tibias were removed and freed of soft tissue attachments, and the extreme distal tip of each extremity was cut off. KRG without Ca^2+ and Mg^2+ (KRG-) was forced through the bone by using a 1-mL syringe with a 27-gauge needle. After dispersing cell clumps and removing the debris, the bone marrow granulocytes were isolated according to an earlier described procedure with some modifications. Briefly, a cell suspension in 2 mL of KRG- was laid on top of a three-layer Percoll gradient (1.095, 1.085, and 1.070 g/mL). The density of each Percoll solution was verified using density marker beads. After centrifugation at 500 × g for 30 min at 4°C in a swinging bucket rotor, the lowest band (1.085/1.095 g/mL interface) was collected as the neutrophil fraction. After washing with KRG-, remaining red blood cells were eliminated by hypotonic lysis. After a final wash with KRG-, the cells were resuspended in KRG. The cell number and population of bone marrow cells were determined by flow cytometry based on forward scatter (size) and side scatter (density) localization.
# as §1, with “(min). The activity before stimulus addition was recorded as basal line and this activity was not changed in vehicle control samples.” for “(min).”
# Data analysis was performed using Graph Pad Prism 7.0. The EC50/IC50 values were determined from experiments in which the activities were normalized to the response induced by maximal response or induced by agonist in the absence of inhibitor. […]
# Fpr2 [3] = target: T1, Fpr2; assay: Receptor preference in mouse neutrophils (Fpr2 versus Fpr1); details: conclusion from superoxide release, Fpr2^-/- cells, desensitization and inhibitors
# Text: C57BL/6 wild-type mice were purchased from Charles River Laboratories and Fpr2^−/− mice generated as described previously, were generously provided by Dr Ji Ming Wang, Frederick National Laboratory for Cancer Research, USA. Mice were kept under standard temperature and light conditions and fed laboratory chow and water ad libitum, at the Department of Rheumatology and Inflammation Research, University of Gothenburg. Sex matched WT and Fpr2^-/- animals (age 8–10 weeks) were used to isolated bone marrow derived neutrophils. The studies performed were approved by the Ethical Committee for Animal Experimentation, Göteborg, Sweden.
# Mice (8–12 weeks of age) were killed by cervical dislocation, the femurs and tibias were removed and freed of soft tissue attachments, and the extreme distal tip of each extremity was cut off. […] The cell number and population of bone marrow cells were determined by flow cytometry based on forward scatter (size) and side scatter (density) localization.
# NADPH-oxidase activity was determined using an isoluminol and HRP-enhanced chemiluminescence (CL) system that allow for the determination of superoxide production. The CL activity was measured in a six-channel Biolumat LB 9505 apparatus (Berthold Co., Wildbad, Germany), using disposable 4-mL polypropylene tubes with 1 mL reaction mixture. […]
compound,measurement,setting,value
CCCCCCCCCCCCCCCC(=O)N[C@@H](CCCCN)C(=O)N[C@H](C(=O)N[C@@H](CC(N)=O)C(=O)N[C@@H](CCCNC(=N)N)C(=O)N[C@@H](CCCNC(=N)N)C(=O)N[C@@H](CC(N)=O)C(=O)N[C@@H](CC(C)C)C(=O)N[C@H](C(=O)N[C@@H](CC(N)=O)C(=O)N[C@@H](CO)C(=O)N[C@@H](CO)C(=O)N[C@@H](CCCNC(=N)N)C(=O)N1CCC[C@H]1C(=O)N[C@@H](CC(C)C)C(=O)N[C@@H](CCCNC(=N)N)C(=O)N[C@H](C(=O)O)C(C)C)C(C)C)[C@@H](C)CC [mF2Pal16] (Palmitoyl-KINRRNLVNSSRPLRV-OH; C-terminus assumed),"effect of mF2Pal16 on F1Pal16 response, WT mouse neutrophils",Fpr2 [1],inhibits the activity of F1Pal16 in mouse neutrophils
same,"effect of mF2Pal16 on F1Pal16 response, WT mouse neutrophils",Fpr2 [1]; listed as mF2pal16,the response was sensitive to the pepducin inhibitor mF2pal16
same,"effect of inhibitor on F2Pal16 response, WT mouse neutrophils",Fpr2 [2],inhibitory effect
same,receptor preference / modulation of Fpr2 (versus Fpr1) in mouse neutrophils,Fpr2 [3],inhibits the activity of Fpr2 in mouse neutrophils; also recorded: potent and selective inhibitor for Fpr2/FPR2; also recorded: targets this receptor
